According to patent US7759337B2, “Phthalazine compounds and methods of use” (Amgen Inc., priority 2005, dated 2010):

The molecules below were run on production of TNF by monocytes activated with bacterial lipopolysaccharide (LPS) (assay: Lipopolysaccharide-activated monocyte TNF production assay). Settings: Homo sapiens; whole blood monocyte assay (LPS induced TNF release).
Format: cell-based
In short: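 Adherent human PBMC-derived monocytes preincubated 60 min with nine two-fold compound dilutions, then stimulated with E. coli K532 LPS (30 ng/mL in the added medium) for 4 h at 37 °C. Supernatant TNF measured by sandwich ELISA; IC50 is the compound concentration halving TNF production, from second-order polynomial fits.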
For `Cc1ccccc1Oc1nncc2cc(-c3c(C)ccc4c(NC5CC5)noc34)ccc12` [Example 318, N-cyclopropyl-6-methyl-7-[1-(2-methylphenoxy)phthalazin-6-yl]-1,2-benzisoxazol-3-amine], the IC50 was ≤ 5 µM.
For `Cc1ccc(C(=O)NC2CC2)cc1-c1ccc2c(OC3CCN(C)CC3)nncc2c1` [Example 319, N-cyclopropyl-4-methyl-3-{1-[(1-methylpiperidin-4-yl)oxy]phthalazin-6-yl}benzamide], the IC50 was ≤ 5 µM.
With `Cc1cc(F)ccc1Oc1nncc2cc(-c3cc(C(N)=O)ccc3C)ccc12` [Example 320, 3-[1-(4-fluoro-2-methylphenoxy)phthalazin-6-yl]-4-methylbenzamide] the IC50 was ≤ 5 µM.
With `Cc1ccc(Oc2nncc3cc(-c4cc(C(N)=O)ccc4C)ccc23)c(C)c1` [Example 321, 3-[1-(2,4-dimethylphenoxy)phthalazin-6-yl]-4-methylbenzamide] the IC50 was ≤ 5 µM.
`CC[C@H](C)Oc1nncc2cc(-c3cc(C(N)=O)ccc3C)ccc12` [Example 322, 4-methyl-3-(1-{[(1S)-1-methylpropyl]oxy}phthalazin-6-yl)benzamide] was tested, and the IC50 was ≤ 5 µM.
With `Cc1ccc(C(N)=O)cc1-c1ccc2c(NC3CCCC3)nncc2c1` [Example 323, 3-[1-(cyclopentylamino)phthalazin-6-yl]-4-methylbenzamide] the IC50 was ≤ 5 µM.
For `CC[C@@H](C)Oc1nncc2cc(-c3cc(C(N)=O)ccc3C)ccc12` [Example 324, 4-methyl-3-(1-{[(1R)-1-methylpropyl]oxy}phthalazin-6-yl)benzamide], the IC50 was ≤ 5 µM.
`Cc1ccc(C(=O)NC2CC2)cc1-c1ccc2c(NC3CCCC3)nncc2c1` [Example 325, 3-[1-(cyclopentylamino)phthalazin-6-yl]-N-cyclopropyl-4-methylbenzamide] was tested, and the IC50 was ≤ 5 µM.
`Cc1ccc(C(=O)NC2CC2)cc1-c1ccc2c(OCC(C)(C)C)nncc2c1` [Example 326, N-cyclopropyl-4-methyl-3-[1-(neopentyloxy)phthalazin-6-yl]benzamide] was tested, and the IC50 was ≤ 5 µM.
`Cc1ccc(C(=O)NC2CC2)cc1-c1ccc2c(NC(C)(C)C)nncc2c1` [Example 327, 3-[1-(tert-butylamino)phthalazin-6-yl]-N-cyclopropyl-4-methylbenzamide] was tested, and the IC50 was ≤ 5 µM.
In the case of `CC[C@@H](C)Oc1nncc2cc(-c3cc(C(=O)NC4CC4)ccc3C)ccc12` [Example 328, N-cyclopropyl-4-methyl-3-(1-{[(1R)-1-methylpropyl]oxy}phthalazin-6-yl)benzamide], the IC50 is reported as ≤ 5 µM.
For `Cc1ccc(C(=O)NC2CC2)cc1-c1ccc2c(NC3CCOCC3)nncc2c1` [Example 329, N-cyclopropyl-4-methyl-3-[1-(tetrahydro-2H-pyran-4-ylamino)phthalazin-6-yl]benzamide], the IC50 was ≤ 5 µM.
For `CNc1noc2c(-c3ccc4c(O[C@@H](C)COC)nncc4c3)c(C)ccc12` [Example 330, N,6-dimethyl-7-(1-(((1S)-1-methyl-2-(methyloxy)ethyl)oxy)-6-phthalazinyl)-1,2-benzisoxazol-3-amine], the IC50 was ≤ 5 µM.
For `CNc1noc2c(-c3ccc4c(OC(C)C)nncc4c3)c(C)ccc12` [Example 331, N,6-dimethyl-7-(1-((1-methylethyl)oxy)-6-phthalazinyl)-1,2-benzisoxazol-3-amine], the IC50 was ≤ 5 µM.
For `Cc1ccc(Oc2ccc3c(-c4ccccc4C)nncc3c2)cc1` [Example 332, 6-(4-methylphenoxy)-1-(2-methylphenyl)phthalazine], the IC50 was ≤ 5 µM.
For `Fc1ccc(Oc2ccc3c(-c4ccc(CN5CCOCC5)cc4)nncc3c2)cc1` [Example 333, 6-(4-fluorophenoxy)-1-[4-(morpholin-4-ylmethyl)phenyl]phthalazine], the IC50 was ≤ 5 µM.
With `COc1ccccc1-c1nncc2cc(Oc3ccc(C)cc3)ccc12` [Example 334, 1-(2-methoxyphenyl)-6-(4-methylphenoxy)phthalazine] the IC50 was ≤ 5 µM.
For `CS(=O)(=O)c1ccc(-c2nncc3cc(Oc4ccc(F)cc4)ccc23)cc1` [Example 335, 6-(4-fluorophenoxy)-1-[4-(methylsulfonyl)phenyl]phthalazine], the IC50 was ≤ 5 µM.
For `Fc1ccc(Oc2ccc3c(N4CCOCC4)nncc3c2)cc1` [Example 336, 6-(4-fluorophenoxy)-1-morpholin-4-ylphthalazine], the IC50 was ≤ 5 µM.
In the case of `Fc1ccc(Oc2ccc3c(-c4ccsc4)nncc3c2)cc1` [Example 337, 6-(4-fluorophenoxy)-1-thien-3-ylphthalazine], the IC50 is reported as ≤ 5 µM.
In the case of `Cc1ccccc1-c1nncc2cc(Oc3cccc(Cl)c3)ccc12` [Example 338, 6-(3-chlorophenoxy)-1-(2-methylphenyl)phthalazine], the IC50 is reported as ≤ 5 µM.
For `Fc1ccc(Oc2ccc3c(-c4ccccc4C(F)(F)F)nncc3c2)cc1` [Example 339, 6-(4-fluorophenoxy)-1-[2-(trifluoromethyl)phenyl]phthalazine], the IC50 was ≤ 5 µM.
For `Cc1ccccc1-c1nncc2cc(Oc3ccc(F)cc3)ccc12` [Example 340, 6-(4-fluorophenoxy)-1-(2-methylphenyl)phthalazine], the IC50 was ≤ 5 µM.
With `Cc1cc(F)ccc1-c1nncc2cc(Oc3ccc(F)cc3)ccc12` [Example 341, 1-(4-fluoro-2-methylphenyl)-6-(4-fluorophenoxy)phthalazine] the IC50 was ≤ 5 µM.
With `COC(=O)c1ccccc1Oc1ccc2c(-c3ccccc3C)nncc2c1` [Example 342, methyl 2-{[1-(2-methylphenyl)phthalazin-6-yl]oxy}benzoate] the IC50 was ≤ 5 µM.
`Cc1ccccc1-c1nncc2cc(Oc3ccccc3C(=O)NC3CC3)ccc12` [Example 343, N-cyclopropyl-2-{[1-(2-methylphenyl)phthalazin-6-yl]oxy}benzamide] was tested, and the IC50 was ≤ 5 µM.
With `Fc1ccc(Oc2ccc3c(-c4cn[nH]c4)nncc3c2)cc1` [Example 344, 6-(4-fluorophenoxy)-1-(1H-pyrazol-4-yl)phthalazine] the IC50 was ≤ 5 µM.
In the case of `Cc1ccccc1-c1nncc2cc(Oc3ccc(F)cc3F)ccc12` [Example 345, 6-(2,4-difluorophenoxy)-1-(2-methylphenyl)phthalazine], the IC50 is reported as ≤ 5 µM.
For `Cc1ccc(Oc2ccc3c(-c4ccccc4Cl)nncc3c2)cc1` [Example 346, 1-(2-chlorophenyl)-6-(4-methylphenoxy)phthalazine], the IC50 was ≤ 5 µM.
For `Cc1cc(F)ccc1-c1nncc2cc(Oc3ccccc3)ccc12` [Example 347, 1-(4-fluoro-2-methylphenyl)-6-phenoxyphthalazine], the IC50 was ≤ 5 µM.
In the case of `O=C(O)Cc1ccc(-c2nncc3cc(Oc4ccc(F)cc4)ccc23)cc1` [Example 348, {4-[6-(4-fluorophenoxy)phthalazin-1-yl]phenyl}acetic acid], the IC50 is reported as ≤ 5 µM.
In the case of `COc1ncccc1-c1nncc2cc(Oc3ccc(F)cc3)ccc12` [Example 349, 6-(4-fluorophenoxy)-1-(2-methoxypyridin-3-yl)phthalazine], the IC50 is reported as ≤ 5 µM.
`Fc1ccc(Oc2ccc3c(N4C[C@@H]5C[C@H]4CO5)nncc3c2)cc1` [Example 350, (1S,4S)-5-[6-(4-fluorophenoxy)phthalazin-1-yl]-2-oxa-5-azabicyclo[2.2.1]heptane] was tested, and the IC50 was ≤ 5 µM.
For `Fc1ccc(Oc2ccc3c(-c4cncnc4)nncc3c2)cc1` [Example 351, 6-(4-fluorophenoxy)-1-pyrimidin-5-ylphthalazine], the IC50 was ≤ 5 µM.
`Cc1ccccc1-c1nncc2cc(Oc3cccc(C(=O)NC4CC4)c3)ccc12` [Example 352, N-cyclopropyl-3-{[1-(2-methylphenyl)phthalazin-6-yl]oxy}benzamide] was tested, and the IC50 was ≤ 5 µM.
`CS(=O)(=O)N1CCN(c2nncc3cc(Oc4ccc(F)cc4)ccc23)CC1` [Example 353, 6-(4-fluorophenoxy)-1-[4-(methylsulfonyl)piperazin-1-yl]phthalazine] was tested, and the IC50 was ≤ 5 µM.
In the case of `Cc1ccccc1-c1nncc2cc(Oc3cccc(C(=O)O)c3)ccc12` [Example 354, 3-{[1-(2-methylphenyl)phthalazin-6-yl]oxy}benzoic acid], the IC50 is reported as ≤ 5 µM.
`Cc1ccccc1-c1nncc2cc(Oc3cccc(F)c3)ccc12` [Example 355, 6-(3-fluorophenoxy)-1-(2-methylphenyl)phthalazine] was tested, and the IC50 was ≤ 5 µM.
In the case of `Fc1ccc(Oc2ccc3c(N4CCOCC4)nncc3c2)c(F)c1` [Example 356, 6-(2,4-difluorophenoxy)-1-morpholin-4-ylphthalazine], the IC50 is reported as ≤ 5 µM.
`Cc1ccc(S(N)(=O)=O)cc1-c1ccc2c(NC(C)C)nncc2c1` [Example 357, 3-[1-(isopropylamino)phthalazin-6-yl]-4-methylbenzenesulfonamide] was tested, and the IC50 was ≤ 5 µM.
With `CNS(=O)(=O)c1ccc(C)c(-c2ccc3c(NC(C)C)nncc3c2)c1` [Example 358, 3-[1-(isopropylamino)phthalazin-6-yl]-N,4-dimethylbenzenesulfonamide] the IC50 was ≤ 5 µM.
In the case of `Cc1ccc(S(=O)(=O)NC2CC2)cc1-c1ccc2c(NC(C)C)nncc2c1` [Example 359, N-cyclopropyl-3-[1-(isopropylamino)phthalazin-6-yl]-4-methylbenzenesulfonamide], the IC50 is reported as ≤ 5 µM.
With `Cc1ccc(S(=O)(=O)NC2CC2)cc1-c1ccc2c(N3CCOCC3)nncc2c1` [Example 360, N-cyclopropyl-4-methyl-3-(1-morpholin-4-ylphthalazin-6-yl)benzenesulfonamide] the IC50 was ≤ 5 µM.
`CCNC(=O)c1ccc(C)c(-c2ccc3c(CC(C)C)nncc3c2)c1` [Example 361, N-ethyl-3-(1-isobutylphthalazin-6-yl)-4-methylbenzamide] was tested, and the IC50 was ≤ 5 µM.
In the case of `CCOC(=O)c1ccc(C)c(-c2ccc3c(C(C)C)nncc3c2)c1` [Example 362, ethyl 3-(1-isopropylphthalazin-6-yl)-4-methylbenzoate], the IC50 is reported as ≤ 5 µM.
For `CCNC(=O)c1ccc(C)c(-c2ccc3c(C(C)C)nncc3c2)c1` [Example 363, N-ethyl-3-(1-isopropylphthalazin-6-yl)-4-methylbenzamide], the IC50 was ≤ 5 µM.
`Cc1cc(S(N)(=O)=O)ccc1-c1nncc2cc(Oc3ccc(F)cc3)ccc12` [Example 364, 4-[6-(4-fluorophenoxy)phthalazin-1-yl]-3-methylbenzenesulfonamide] was tested, and the IC50 was ≤ 5 µM.
In the case of `CC[C@H](C)Nc1nncc2cc(-c3c(C)ccc4c(NC)noc34)ccc12` [Example 365, 6-[6-methyl-3-(methylamino)-1,2-benzisoxazol-7-yl]-N-[(1S)-1-methylpropyl]phthalazin-1-amine], the IC50 is reported as ≤ 5 µM.
